According to patent US20130143969A1 (THE OHIO STATE UNIVERSITY, priority 2010, published 2013):

Columns and labels:
[1] = in vivo; details: CD2F1, mouse, in vivo
Excerpt: Extracts of bio-matrices were subjected to HPLC mass spectrometric analysis.

[2] = test system: DNMT1; experiment: DNMT1 mRNA and protein in MV4-11 engrafted tumor tissues; format: in vivo; details: MV4-11 engrafted mice, curcumin i.p. 100 mg/kg
Method: Cells or tumor tissues were homogenized and lysed in ice-cold lysis buffer (20 mM, pH 7.0 HEPES, 150 mM NaCl, 0.1% NP40 supplemented with 1 mM β-glycerophosphate, 1 mM Na3VO4, 1 mM NaF, 1 mM benzamide and 1 mM phenylmethylsulfonyl fluoride) with protease inhibitors (Protease Inhibitor cocktail Set III, Calbiochem-Novabiochem Corporation, La Jolla, Calif.), and incubated on ice for 20 mM. The lysate was centrifuged at 12,000 g for […] at 4° C. Proteins in the supernatants were resolved on 4-15% SDS-polyacrylamide gradient gels, and then transferred onto nitrocellulose membranes, incubated with appropriate antibodies and subjected to Western blotting. The immunoblotted proteins were detected by ECL reagent (GE Healthcare Bio-Sciences Corp., Piscataway, N.J.).
Quantitative RT-PCR was used to quantify the mRNA levels of DNMT1, DNMT3a, DNMT3b, p15INK4B and p21. Total RNA was extracted with Trizol reagent (Invitrogen, Carlsbad, Calif.) and reverse transcribed by reverse transcriptase (Invitrogen). Quantitative real-time PCR reactions were performed in triplicate using Taqman gene expression assay (Applied Biosystems) with an ABI prism 7700 detector (Applied Biosystems). The target gene values were normalized to the values of internal control GAPDH or 18 S, and expressed as relative percent change (100×2^(˜ΔΔCt)) over non-treated samples. […]

Compound: COc1cc(/C=C/C(=O)CC(=O)/C=C/c2ccc(O)c(OC)c2)ccc1O [curcumin]
- concentration at 10 min [1]: 1620 ng/mL
- concentration at 20 min [1]: 1620 ng/mL
- concentration at 30 min [1]: 2450 ng/mL
- concentration at 45 min [1]: 661 ng/mL
- concentration at 60 min [1]: 448 ng/mL
- concentration at 90 min [1]: 135 ng/mL
- concentration at 120 min [1]: 231 ng/mL
- concentration at 240 min [1]: 169 ng/mL
- concentration at 480 min [1]: 58.3 ng/mL
- mRNA level of DNMT1 in engrafted tissues [2]: significantly decreases
- protein level of DNMT1 in engrafted tissues, decrease [2]: 50%
